In patent publication US7674801B2 (AstraZeneca AB, priority 2006, dated 2010):

biological target: S. aureus (SAU) GyrB ATPase (Staphylococcus aureus, UniProt P0A0K8); assay: S. aureus GyrB ATPase inhibition, ammonium molybdate/malachite green phosphate detection assay; assay type: biochemical; conditions: 10 compound concentrations; 500 μM ATP
Method: Compounds were tested for inhibition of GyrB ATPase activity using an ammonium molybdate/malachite green-based phosphate detection assay (Lanzetta, P. A., L. J. Alvarez, P. S. Reinach, and O. A. Candia, 1979, 100: 95-97). Assays were performed in multiwell plates in 100 μl reactions containing: 50 mM Hepes buffer pH 7.5, 75 mM ammonium acetate, 8.0 mM magnesium chloride, 1.0 mM ethylenediaminetetraacetic acid, 5% glycerol, 2 mM 1,4-Dithio-DL-threitol, 400 nM bovine serum albumin, 5 μg/ml sheared salmon sperm DNA, 1.25 nM E. coli GyrA, 1.25 nM S. aureus GyrB, 500 μM ATP, and compound in dimethylsulfoxide. Reactions were quenched with 150 μl of ammonium molybdate/malachite green detection reagent containing 1.2 mM malachite green hydrochloride, 8.5 mM ammonium molybdate tetrahydrate, and 1 M hydrochloric acid. Plates were read in an absorbance plate reader at 650 nm and percent inhibition values were calculated using dimethylsulfoxide (2%)-containing reactions as 0% inhibition and novobiocin-containing (2 μM) reactions as 100% inhibition controls. Compound potency was based on IC50 measurements determined from reactions performed in the presence of 10 different compound concentrations.

Chain of S. aureus (SAU) GyrB ATPase (P0A0K8 whole entry): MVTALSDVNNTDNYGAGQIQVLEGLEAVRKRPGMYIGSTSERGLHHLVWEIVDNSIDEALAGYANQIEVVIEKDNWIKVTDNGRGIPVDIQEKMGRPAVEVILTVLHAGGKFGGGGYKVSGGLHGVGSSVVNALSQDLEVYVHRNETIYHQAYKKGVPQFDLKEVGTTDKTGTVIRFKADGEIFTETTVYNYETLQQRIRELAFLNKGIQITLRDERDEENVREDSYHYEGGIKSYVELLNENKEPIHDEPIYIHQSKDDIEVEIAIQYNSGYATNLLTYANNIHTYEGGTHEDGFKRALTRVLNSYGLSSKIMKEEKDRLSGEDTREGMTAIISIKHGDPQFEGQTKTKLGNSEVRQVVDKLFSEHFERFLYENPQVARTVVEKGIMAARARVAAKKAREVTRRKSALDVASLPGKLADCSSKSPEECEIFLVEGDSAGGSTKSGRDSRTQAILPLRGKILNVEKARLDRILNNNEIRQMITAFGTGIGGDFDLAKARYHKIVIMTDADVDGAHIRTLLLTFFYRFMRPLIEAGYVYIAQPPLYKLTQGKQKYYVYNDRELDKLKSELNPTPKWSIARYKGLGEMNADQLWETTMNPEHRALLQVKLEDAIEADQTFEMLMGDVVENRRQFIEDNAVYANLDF
Chain of S. aureus (SAU) GyrB ATPase (P0AES4 whole entry, further chain): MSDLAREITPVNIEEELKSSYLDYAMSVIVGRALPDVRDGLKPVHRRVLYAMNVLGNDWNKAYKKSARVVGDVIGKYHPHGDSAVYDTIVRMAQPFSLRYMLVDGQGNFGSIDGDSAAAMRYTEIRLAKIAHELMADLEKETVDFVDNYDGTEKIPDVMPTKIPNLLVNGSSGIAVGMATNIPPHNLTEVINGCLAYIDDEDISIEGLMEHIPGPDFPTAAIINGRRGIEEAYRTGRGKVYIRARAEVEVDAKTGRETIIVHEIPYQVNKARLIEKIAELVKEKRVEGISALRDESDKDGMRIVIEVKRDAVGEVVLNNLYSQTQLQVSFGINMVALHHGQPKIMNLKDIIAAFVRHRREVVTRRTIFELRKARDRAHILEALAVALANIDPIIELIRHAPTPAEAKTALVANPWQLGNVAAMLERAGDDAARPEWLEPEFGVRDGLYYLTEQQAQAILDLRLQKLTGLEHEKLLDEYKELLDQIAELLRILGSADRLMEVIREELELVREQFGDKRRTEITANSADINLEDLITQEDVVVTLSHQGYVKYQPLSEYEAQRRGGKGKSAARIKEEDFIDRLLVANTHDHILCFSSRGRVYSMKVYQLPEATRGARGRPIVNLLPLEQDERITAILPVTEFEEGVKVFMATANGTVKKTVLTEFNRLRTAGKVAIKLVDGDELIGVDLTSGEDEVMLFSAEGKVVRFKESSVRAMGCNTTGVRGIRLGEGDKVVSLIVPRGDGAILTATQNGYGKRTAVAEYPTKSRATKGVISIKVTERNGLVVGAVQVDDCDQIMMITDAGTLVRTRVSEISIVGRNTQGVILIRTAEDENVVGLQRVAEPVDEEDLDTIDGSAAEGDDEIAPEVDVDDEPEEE

Structure (SMILES)	IC50 [nM]
CCCCNC(=O)c1nc(-c2ccc(NC(=O)NCC)nc2)sc1C(=O)NOC [Example 36, N^4-Butyl-2-(6-{[(ethylamino)carbonyl]amino}pyridin-3-yl)-N^5-methoxy-1,3-thiazole-4,5-dicarboxamide]	16.8
CCCCNC(=O)c1nc(-c2ccc(NC(=O)NCC)nc2)sc1C(N)=O [Example 39, N^4-Butyl-2-(6-{[(ethylamino)carbonyl]amino}pyridin-3-yl)-1,3-thiazole-4,5-dicarboxamide]	14

same assay, conditions: compound concentration 5 μM (values marked *)

Structure (SMILES)	inhibition at 5 µM [%]
CCNC(=O)Nc1ccc(-c2nc(C(=O)NC3CC3)c(C(=O)NOC)s2)cn1 [Example 35, N^4-Cyclopropyl-2-(6-{[(ethylamino)carbonyl]amino}pyridin-3-yl)-N^5-methoxy-1,3-thiazole-4,5-dicarboxamide]	96.7

same assay, conditions: read-out: S. aureus (SAU) GyrB ATPase % Inhibition, compound concentration 12.5 μM

Structure (SMILES)	inhibition at 12.5 µM [%]
CCCCNC(=O)c1nc(-c2ccc(NC(=O)NCC)nc2)sc1C(=O)NOC [Example 36, N^4-Butyl-2-(6-{[(ethylamino)carbonyl]amino}pyridin-3-yl)-N^5-methoxy-1,3-thiazole-4,5-dicarboxamide]	4.84
CCNC(=O)Nc1ccc(-c2ncc(C(N)=O)s2)cn1 [Example 37, 2-(6-{[(Ethylamino)carbonyl]amino}pyridin-3-yl)-1,3-thiazole-5-carboxamide]	98.9
CCNC(=O)Nc1ccc(-c2nc(C(=O)NC3CC3)c(C(N)=O)s2)cn1 [Example 38, N^4-Cyclopropyl-2-(6-{[(ethylamino)carbonyl]amino}pyridin-3-yl)-1,3-thiazole-4,5-dicarboxamide]	91.8
CCCCNC(=O)c1nc(-c2ccc(NC(=O)NCC)nc2)sc1C(N)=O [Example 39, N^4-Butyl-2-(6-{[(ethylamino)carbonyl]amino}pyridin-3-yl)-1,3-thiazole-4,5-dicarboxamide]	99
CCNC(=O)Nc1ccc(-c2nc3cccc(C(N)=O)c3s2)cn1 [Example 40, 2-(6-{[(Ethylamino)carbonyl]amino}pyridin-3-yl)-1,3-benzothiazole-7-carboxamide]	83.7
CCNC(=O)Nc1nc(-c2ccc(C(=O)OC)cc2)cs1 [Example 41, Methyl 4-(2-{[(ethylamino)carbonyl]amino}-1,3-thiazol-4-yl)benzoate]	26.9
CCNC(=O)Nc1ccc(-c2ccc3c(c2)c(=O)c(C(=O)O)cn3CCOC)cn1 [Example 46, 6-(6-(3-Ethylureido)pyridin-3-yl)-1-(2-methoxyethyl)-4-oxo-1,4-dihydroquinoline-3-carboxylic acid]	83.4
CCCCn1cc(C(=O)O)c(=O)c2cc(-c3ccc(NC(=O)NCC)nc3)ccc21 [Example 47, 1-Butyl-6-(6-(3-ethylureido)pyridin-3-yl)-4-oxo-1,4-dihydroquinoline-3-carboxylic acid]	91.7
CCNC(=O)Nc1ccc(-c2ccc3c(c2)c(=O)c(C(=O)O)cn3CCN2CCOCC2)cn1 [Example 48, 6-(6-(3-ethylureido)pyridin-3-yl)-1-(2-morpholinoethyl)-4-oxo-1,4-dihydroquinoline-3-carboxylic acid]	101
CCNC(=O)Nc1ccc(-c2ccc3c(c2)c(=O)c(C(=O)O)cn3CC(F)F)cn1 [Example 49, 1-(2,2-difluoroethyl)-6-(6-(3-ethylureido)pyridin-3-yl)-4-oxo-1,4-dihydroquinoline-3-carboxylic acid]	37.8
CCNC(=O)Nc1ccc(-c2c[nH]c(=O)c(C(=O)O)c2)cn1 [Example 51, 5-(6-(3-ELthylureido)pyridin-3-yl)-2-oxo-1,2-dihydropyridine-3-carboxylic acid]	62.1
CCNC(=O)Nc1ccc(-c2nc(C(=O)N(C)C)c(C(=O)NCC)s2)cn1 [Example 54, N^5-Ethyl-2-(6-{[(ethylamino)carbonyl]amino}pyridin-3-yl)-N^4,N^4-dimethyl-1,3-thiazole-4,5-dicarboxamide]	89.8
CCCNC(=O)c1sc(-c2ccc(NC(=O)NCC)nc2)nc1C(=O)N(C)C [Example 55, 2-[6-(3-Ethyl-ureido)-pyridin-3-yl]-thiazole-4,5-dicarboxylic acid 4-dimethylamide 5-propylamide]	86.4
CCNC(=O)Nc1ccc(-c2nc(C(=O)N(C)C)c(C(=O)NC(C)C)s2)cn1 [Example 56, 2-[6-(3-Ethyl-ureido)-pyridin-3-yl]-thiazole-4,5-dicarboxylic acid 4-dimethylamide 5-isopropylamide]	84.1
